According to patent US7858635B2 (priority 2005, dated 2010):
Where two headings read alike, the source gives them in different places.

How the values were obtained:
[1] = molecular target: T1, M1 muscarinic receptor (Homo sapiens, UniProt P11229); assay: Functional mobilization of intracellular calcium (FLIPR, Fluo-3), M1-CHO cells; type: cell-based; conditions: for Emax: 100% efficacy is the maximum response obtained with the Carbachol control, read-out: M1 Efficacy
T1 construct: expressed in transfected cells; host or cells: CHO cells (M1-CHO, under zeocin and G418 selection)
T1 sequence (P11229 1-460): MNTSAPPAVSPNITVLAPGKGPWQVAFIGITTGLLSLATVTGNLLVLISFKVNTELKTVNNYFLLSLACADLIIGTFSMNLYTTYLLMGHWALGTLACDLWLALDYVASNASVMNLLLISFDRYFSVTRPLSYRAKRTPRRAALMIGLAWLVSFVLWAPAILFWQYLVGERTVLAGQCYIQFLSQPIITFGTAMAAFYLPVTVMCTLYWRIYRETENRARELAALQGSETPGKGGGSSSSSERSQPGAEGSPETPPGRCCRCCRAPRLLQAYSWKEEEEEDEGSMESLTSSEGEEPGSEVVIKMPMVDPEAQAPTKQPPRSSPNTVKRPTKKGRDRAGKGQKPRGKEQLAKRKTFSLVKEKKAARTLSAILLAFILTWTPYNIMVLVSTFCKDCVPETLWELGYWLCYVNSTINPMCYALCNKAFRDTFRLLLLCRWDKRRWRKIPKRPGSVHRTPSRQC
Procedure: (§1) CHO cells expressing muscarinic receptors (M1 to M5) are grown as monolayers in tissue culture flasks at 37° C. in a humidified atmosphere containing 5% CO2 and passaged every 3-5 days. The growth media is Dulbecco's modified eagles medium (DMEM, Gibco Cat#12430-054), containing 25 mM Hepes and supplemented with Fetal Bovine Serum (Hyclone, cat# SH30071.03), 0.1 mM of MEM non-essential amino acids (GIBCO, Cat# 11140-050), 1 mM MEM Sodium Pyruvate (GIBCO Cat# 11360-070) and 100 units/ml of Penicillin G and 100 μg/ml of Streptomycin (GIBCO Cat# 15140-122). The recombinant muscarinic receptor cell lines are grown under antibiotic pressure with media containing 25 μm/ml zeocin and 500 μg/ml G418 (M1-CHO), 4 μg/ml puromycin, 50 μg/ml zeocin and 2.5 μm/ml blasticidin (M2 and M4-CHO) or 50 μg/ml zeocin and 4 μg/ml puromycin (M3 and M5-CHO).
(§2) Cells are harvested at 80-90% confluence using Versene (GIBCO Cat# 15040-066), collected by centrifugation and seeded 18-24 hrs prior to running the calcium assay at a density of 5,000-10,000 cells/well in […], clear-bottomed 384-well plates (BD Biocoat, poly-D-lysine, Cat#356663). The day of the experiment, the cells are washed with a plate washer (Bioteck Instruments, ELX 405) using bath1 buffer (140-mM NaCl, 4.5-mM KCL, 2-mM CaCl2, 1-mM MgCl2, 10-mM Hepes-Na, 10-mM Glucose, pH 7.4, with NaOH) containing 1 mM Probenecid. Next, the calcium dye Fluo-3 (25 μl/well of Fluo-3 μM at 4 μM, Molecular Probes F-1241, in Bath 1 buffer containing 1 mM Probenecid) is added to the 25 μl of Bath 1 remaining in each well after the plate wash and the dye is loaded at 37° C. in the tissue culture incubator for 60-90 min. The fluorescent dye is removed using the plate washer with Bath 1 containing 1 mM Probenecid, leaving 25 μl/well of this solution after the wash. Alternatively, cells can be loaded with the calcium indicator from Molecular Devices (Calcium 3 Assay Reagents, Cat # R7181) adding 5 μl of a 5× solution dye in Bath 1 containing 1 mM Probenecid (10 ml per dye flask cat# R7182 to generate a solution 20×) to 20 μl of the same buffer. After loading for 60 min, the experiment can be run without having to remove the dye.
(§3) Compounds are prepared at a 2× fold concentration in a 96-well plate (round bottom, Costar Corning cat# 3656), by reconstituting the pre-spotted compounds in bath 1 containing 1 mM probenecid. The final concentration DMSO is 0.5%, and the amount of DMSO is normalized across the assay plate. To determine an agonist action of the compounds on muscarinic receptors, the reconstituted compounds are added (25 μl compound/well) to the cell assay plate (containing 25 μl/well) using the multi-channel robotic system of the FLIPR 3 Instrument (Molecular Devices, Sunnyvale, Calif.). To determine a functional inhibitory action of the compounds on muscarinic receptors, the reconstituted compounds are added (25 μl compound/well) to the assay plate and pre-incubated for 15 min prior to adding 25 μl of Carbachol at 3× the EC80 for each muscarinic subtype. Alternatively, the compounds can be co-applied simultaneously with the agonist. In both assay modes, the fluorescence is recorded for 60 sec (excitation wavelength is […] and emission wavelength 540 nm) using the FLIPR 3 instrument.
(§4) The potency, efficacy and selectivity of the muscarinic compounds were evaluated by screening the compound activity across the whole family (M1 to M5 cells). Compounds were also screened for activity on other proteins such as other GPCRs and ion channels to determine selectivity on M4 receptors.

[2] = molecular target: T2, M4 muscarinic receptor (Homo sapiens, UniProt P08173); assay: Functional mobilization of intracellular calcium (FLIPR, Fluo-3), M4-CHO cells; type: cell-based; conditions: for Emax: 100% efficacy is the maximum response obtained with the Carbachol control, read-out: M4 Efficacy
T2 construct: expressed in transfected cells; host or cells: CHO cells (M4-CHO, under puromycin, zeocin and blasticidin selection)
T2 sequence (P08173 1-479): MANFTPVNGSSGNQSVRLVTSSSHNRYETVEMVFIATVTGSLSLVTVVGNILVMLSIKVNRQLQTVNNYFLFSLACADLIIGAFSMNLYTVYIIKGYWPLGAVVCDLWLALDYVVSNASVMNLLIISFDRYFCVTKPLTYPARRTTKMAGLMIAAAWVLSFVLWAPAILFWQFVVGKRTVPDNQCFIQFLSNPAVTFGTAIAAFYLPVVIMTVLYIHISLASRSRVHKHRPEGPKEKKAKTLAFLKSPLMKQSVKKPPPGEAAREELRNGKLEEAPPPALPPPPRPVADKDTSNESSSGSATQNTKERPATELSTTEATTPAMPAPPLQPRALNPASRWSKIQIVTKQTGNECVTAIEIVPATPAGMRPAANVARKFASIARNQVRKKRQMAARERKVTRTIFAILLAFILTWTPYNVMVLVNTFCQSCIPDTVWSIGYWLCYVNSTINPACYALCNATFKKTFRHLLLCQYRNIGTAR
Procedure: as §1, §2, §3, §4

[3] = compound nos. 1-454, M1-CHO cells, calcium mobilization
[4] = compound nos. 1-454, M4-CHO cells, calcium mobilization

## Fc1ccc2c(c1)C1(CCN(C[C@H]3C[C@H]4CC[C@H]3C4)CC1)CO2 [compound 207]
[1]; compound nos. 1-454
  Emax: 65 to 85%
[1]; [3]
  M1 Activity: ++ (activity was measured to be between 0.7 μM and 3.0 μM)
[2]; compound nos. 1-454
  Emax: < 55%
[2]; [4]
  M4 Activity: + (activity was measured to be greater than or equal to 4.0 μM)

## CC(=O)N[C@H]1CC2(CCN(C3CCOCC3)CC2)c2ccccc21 [compound 206]
[1]; compound nos. 1-454
  Emax: 65 to 85%
[1]; [3]
  M1 Activity: +++ (activity was measured to be less than or equal to 0.7 μM)
[2]; compound nos. 1-454
  Emax: < 55%
[2]; [4]
  M4 Activity: + (activity was measured to be greater than or equal to 4.0 μM)

## COCCOC(=O)N1C2CCC1CC(N1CCC3(CC1)CN(C(=O)O[C@@H]1CCOC1)c1ccc(F)cc13)C2 (stereo partly shown) [compound 216]
[1]; compound nos. 1-454
  Emax: > 85%
[1]; [3]
  M1 Activity: +++ (activity was measured to be less than or equal to 0.7 μM)
[2]; compound nos. 1-454
  Emax: < 55%
[2]; [4]
  M4 Activity: + (activity was measured to be greater than or equal to 4.0 μM)

## CCCOC(=O)N1C2CCC1CC(N1CCC3(CC1)CN(C(=O)N(C)C)c1ccc(F)cc13)C2 (stereo not shown) [compound 360]
[1]; compound nos. 1-454
  Emax: 65 to 85%
[1]; [3]
  M1 Activity: ++ (activity was measured to be between 0.7 μM and 3.0 μM)
[2]; compound nos. 1-454
  Emax: < 55%
[2]; [4]
  M4 Activity: + (activity was measured to be greater than or equal to 4.0 μM)

## COc1ccc(N2CCC(N3CCC4(CC3)CN(C(=O)N(C)C)c3ccc(F)cc34)CC2)nn1 [compound 488]
[1]; compound nos. 455-509
  Emax: > 100%
[1]; compounds 455-509
  M1 Activity: + (activity was measured to be greater than or equal to 5.0 μM)
[2]; compound nos. 455-509
  Emax: 25 to 100%
[2]; compounds 455-509
  M4 Activity: ++ (activity was measured to be between 2.0 μM and 5.0 μM)

## COC(=O)N1CCC(N2CCC3(CC2)CN(C(C)=O)c2ccc(F)cc23)CC1 [compound 374]
[1]; compound nos. 1-454
  Emax: 65 to 85%
[1]; [3]
  M1 Activity: ++ (activity was measured to be between 0.7 μM and 3.0 μM)
[2]; compound nos. 1-454
  Emax: 55 to 70%
[2]; [4]
  M4 Activity: + (activity was measured to be greater than or equal to 4.0 μM)

## Cc1nsc(N2CCC(N3CCC4(CC3)CN(C(=O)N(C)C)c3ccccc34)CC2)n1 [compound 458]
[1]; compound nos. 455-509
  Emax: > 100%
[1]; compounds 455-509
  M1 Activity: +++ (activity was measured to be less than or equal to 2.0 μM)
[2]; compound nos. 455-509
  Emax: > 100%
[2]; compounds 455-509
  M4 Activity: ++ (activity was measured to be between 2.0 μM and 5.0 μM)

## CCOC(=O)N1CCC(CN2CCC3(CC2)CN(C(C)=O)c2c(F)cccc23)CC1 [compound 307]
[1]; compound nos. 1-454
  Emax: 65 to 85%
[1]; [3]
  M1 Activity: ++ (activity was measured to be between 0.7 μM and 3.0 μM)
[2]; compound nos. 1-454
  Emax: < 55%
[2]; [4]
  M4 Activity: + (activity was measured to be greater than or equal to 4.0 μM)

## Cc1ccc2c(c1)C1(CCN(CC3CC4CCC3O4)CC1)CN2 (stereo not shown) [compound 372]
[1]; compound nos. 1-454
  Emax: 65 to 85%
[1]; [3]
  M1 Activity: +++ (activity was measured to be less than or equal to 0.7 μM)
[2]; compound nos. 1-454
  Emax: > 70%
[2]; [4]
  M4 Activity: ++ (activity was measured to be between 0.1 μM and 4.0 μM)

## Cc1nsc(N2C3CCC2CC(N2CCC4(CC2)CN(C(=O)N(C)C)c2ccccc24)C3)n1 (stereo not shown) [compound 493]
[1]; compound nos. 455-509
  Emax: > 100%
[1]; compounds 455-509
  M1 Activity: +++ (activity was measured to be less than or equal to 2.0 μM)
[2]; compound nos. 455-509
  Emax: 25 to 100%
[2]; compounds 455-509
  M4 Activity: ++ (activity was measured to be between 2.0 μM and 5.0 μM)

## O=C(O[C@H]1CCOC1)N1C2CCC1CC(N1CCC3(CC1)COc1ccc(F)cc13)C2 (stereo partly shown) [compound 212]
[1]; compound nos. 1-454
  Emax: < 65%
[1]; [3]
  M1 Activity: + (activity was measured to be greater than or equal to 3.0 μM)
[2]; compound nos. 1-454
  Emax: < 55%
[2]; [4]
  M4 Activity: + (activity was measured to be greater than or equal to 4.0 μM)

## COC(=O)N1CCCC(N2CCC3(CC2)CN(C(C)=O)c2ccc(F)cc23)CC1 (stereo not shown) [compound 132]
[1]; compound nos. 1-454
  Emax: > 85%
[1]; [3]
  M1 Activity: +++ (activity was measured to be less than or equal to 0.7 μM)
[2]; compound nos. 1-454
  Emax: > 70%
[2]; [4]
  M4 Activity: +++ (activity was measured to be less than or equal to 0.1 μM)

## CCOC(=O)N1C2CCC1CC(N1CCC3(CC1)CN(S(=O)(=O)c1c(C)noc1C)c1ccc(F)cc13)C2 (stereo not shown) [compound 89]
[1]; compound nos. 1-454
  Emax: 65 to 85%
[1]; [3]
  M1 Activity: +++ (activity was measured to be less than or equal to 0.7 μM)
[2]; compound nos. 1-454
  Emax: < 55%
[2]; [4]
  M4 Activity: ++ (activity was measured to be between 0.1 μM and 4.0 μM)
